Data set [1] has as its target T1, SXR (Homo sapiens, UniProt O75469).
T1 sequence (O75469 1-434): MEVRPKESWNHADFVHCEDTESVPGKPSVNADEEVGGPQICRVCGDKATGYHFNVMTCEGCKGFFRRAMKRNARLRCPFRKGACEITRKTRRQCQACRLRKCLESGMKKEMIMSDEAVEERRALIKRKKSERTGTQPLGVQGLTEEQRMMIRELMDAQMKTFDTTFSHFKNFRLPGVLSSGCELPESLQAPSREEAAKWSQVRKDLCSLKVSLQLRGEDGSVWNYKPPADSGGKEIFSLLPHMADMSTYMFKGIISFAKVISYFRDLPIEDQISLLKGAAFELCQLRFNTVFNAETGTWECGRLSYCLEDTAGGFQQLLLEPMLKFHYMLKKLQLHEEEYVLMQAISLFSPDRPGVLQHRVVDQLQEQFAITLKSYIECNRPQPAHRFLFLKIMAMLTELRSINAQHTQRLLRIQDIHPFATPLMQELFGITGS
T1 sequence (P19793 1-462 partner): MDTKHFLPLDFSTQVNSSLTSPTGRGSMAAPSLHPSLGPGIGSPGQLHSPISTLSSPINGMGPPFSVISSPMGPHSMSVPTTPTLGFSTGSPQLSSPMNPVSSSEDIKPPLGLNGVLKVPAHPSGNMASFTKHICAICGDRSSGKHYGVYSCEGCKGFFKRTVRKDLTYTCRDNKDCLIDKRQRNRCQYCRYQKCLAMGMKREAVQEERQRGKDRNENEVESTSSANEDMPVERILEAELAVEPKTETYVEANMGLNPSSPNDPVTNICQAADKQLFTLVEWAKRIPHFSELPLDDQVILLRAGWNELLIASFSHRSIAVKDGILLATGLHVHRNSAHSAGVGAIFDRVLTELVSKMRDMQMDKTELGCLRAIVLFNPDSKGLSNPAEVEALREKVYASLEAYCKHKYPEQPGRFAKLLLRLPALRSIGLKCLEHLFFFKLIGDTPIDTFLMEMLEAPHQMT
The data set can be described thus: Transfection-based reporter assay in CV-1 cells, GAL4-SXR or full-length SXR. Set-up: Activation of SXR response elements (DR-3, DR-4, DR-5) by full-length SXR: dose or concentration left out as unconfirmed. As to conditions: for Activation of human SXR by compounds known to induce CYP3A4: 50 μM, tamoxifen 5 μM (FIG. 7A); for Activation of SXR in transfection-based assays: GAL4-SXR LBD chimera or full-length SXR, CV-1 cells, steroids at high doses, up to 50 mM [sic]; for Activation of SXR response elements (DR-3, DR-4, DR-5) by full-length SXR: cotransfection, panel of steroids as printed (FIG. 4). On the technique in general: A reporter such as luciferase makes a cellular process visible.
Source text: (§4) Thus, the protein coding region of SXR was PCR amplified and subcloned into NcoI and BamH1 sites of the vector pCDG1 (see Blumberg et al., supra). During this process the putative initiator Leu was converted to Met with a Kozak consensus sequence CCATGG.

Data set [2] deals with T1, SXR.
Source text: as §4
A further data set has as its system CYP3A11 gene. The following applies: single dose 24 h before sacrifice. Here is the method:
The animals were allowed free access to food and water at all times. […] When necessary, mice were treated with a single intraperitoneal injection of DEX (50 mg/kg), PCN (40 mg/kg), or CTZ (50 mg/kg).
To detect specific transcripts, [^32P]-cDNA probes labeled by Random Primer Labeling Kit (Boringher) were hybridized to the membranes. The probe used to detect transgene contains both the SXR cDNA and the SV40 sequences. […] The filters were subsequently stripped and rehybridized with a murine glyceraldehyde-3-phosphate dehydrogenase (GAPDH) cDNA probe for RNA loading normalization.
Tissues were harvested 24 h later and subjected to Northern blot analysis.

Data set [3] addresses T2, SXR (Homo sapiens, UniProt O75469).
T2 sequence (O75469 1-434): T1 sequence (O75469 1-434)
Here is the method:
(§1) The PCR-amplified sequences and target mutagenesis were confirmed by DNA sequencing.
(§2) All compounds were purchased from Sigma.
(§3) A panel of natural and synthetic steroid and nonsteroid compounds were tested for their ability to activate SXR and/or PXR in transfection-based assays using primary rat hepatocytes as recipient cells and the cellular promoters of the rat CYP3A23 gene or the human CYP3A4 gene as reporters.
This is another data set of the same source.

A further data set addresses T3, endogenous PXR (Rattus norvegicus, UniProt Q9R1A7).
T3 sequence (Q9R1A7 1-431): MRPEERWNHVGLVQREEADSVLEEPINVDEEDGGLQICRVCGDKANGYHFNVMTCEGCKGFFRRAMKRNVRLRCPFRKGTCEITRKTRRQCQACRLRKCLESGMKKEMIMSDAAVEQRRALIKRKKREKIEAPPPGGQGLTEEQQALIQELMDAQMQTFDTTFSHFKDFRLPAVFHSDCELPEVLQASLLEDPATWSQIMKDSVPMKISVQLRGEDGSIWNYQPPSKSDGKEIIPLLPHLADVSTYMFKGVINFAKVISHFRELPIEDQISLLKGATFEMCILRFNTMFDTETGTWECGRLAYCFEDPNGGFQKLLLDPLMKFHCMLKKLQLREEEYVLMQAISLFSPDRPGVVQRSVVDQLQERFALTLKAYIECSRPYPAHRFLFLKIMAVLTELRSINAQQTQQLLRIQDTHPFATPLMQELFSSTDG
As to conditions: hepatocytes. The procedure: as §1, §2, §3

Another data set concerns the target T4, hGRα (Homo sapiens, UniProt P04150).
T4 construct: expressed in transfected cells
T4 sequence (P04150 1-777): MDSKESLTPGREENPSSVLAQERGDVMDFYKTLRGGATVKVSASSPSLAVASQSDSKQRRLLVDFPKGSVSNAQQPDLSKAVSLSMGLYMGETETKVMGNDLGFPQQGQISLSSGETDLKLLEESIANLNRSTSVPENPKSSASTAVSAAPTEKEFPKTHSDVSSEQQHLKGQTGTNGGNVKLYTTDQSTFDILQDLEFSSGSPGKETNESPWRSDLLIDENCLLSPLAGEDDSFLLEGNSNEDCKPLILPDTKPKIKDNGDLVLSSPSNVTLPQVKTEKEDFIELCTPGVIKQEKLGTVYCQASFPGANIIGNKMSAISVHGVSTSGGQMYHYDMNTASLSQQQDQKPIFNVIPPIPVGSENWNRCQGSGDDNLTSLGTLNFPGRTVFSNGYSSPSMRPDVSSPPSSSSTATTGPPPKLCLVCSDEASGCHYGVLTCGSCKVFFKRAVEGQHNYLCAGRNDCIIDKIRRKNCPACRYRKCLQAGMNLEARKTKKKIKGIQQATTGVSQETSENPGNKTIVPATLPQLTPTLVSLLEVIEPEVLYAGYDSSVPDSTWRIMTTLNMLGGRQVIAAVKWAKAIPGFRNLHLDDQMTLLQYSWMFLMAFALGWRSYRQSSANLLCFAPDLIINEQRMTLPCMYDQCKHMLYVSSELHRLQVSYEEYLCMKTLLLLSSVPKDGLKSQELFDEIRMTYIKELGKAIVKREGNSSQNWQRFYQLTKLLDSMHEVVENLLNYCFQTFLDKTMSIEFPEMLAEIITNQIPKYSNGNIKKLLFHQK
The data set can be described thus: Activation of hGRα on MTV-luc. The class given is cell-based. As to conditions: 50 μM (FIG. 7D; 50 mM in FIG. 5 legend). The procedure:
FIG. 5 further illustrates the broad ligand specificity of SXR. […] 6β-hydroxylated, non-reduced, 5α and 5β reduced forms of corticosterone were tested for their ability to activate GAL-SXR on tk(MH100)4-luc and hGRa on MTV-luc at […].
6β-hydroxylated, non-reduced, 5α and 5β reduced forms of corticosterone were tested for their ability to activate GAL-hSXR on tk(MH100)4-luc (lefthand group of 5 columns) and hGRα on MTV-luc at 50 μM (righthand group of 5 columns). […] In each group of columns: column 1=solvent; column 2=corticosterone; column 3=5α-tetrahydrocorticosterone; column 4=5β-tetrahydrocorticosterone; and column 5=6β-OH-corticosterone.

“Also recorded” adds a separate entry of the source. Read-outs that look alike come from different tables or passages of the source.

For `C[C@]12C[C@H](O)[C@H]3[C@@H](CCC4=CC(=O)CC[C@@]43C)[C@@H]1CC[C@@H]2C(=O)CO` [corticosterone], on SXR [1], the “Activation of human SXR by compounds known to induce CYP3A4” value (“Activation of human SXR” below) is listed as “most potent activators”; the “Activation of SXR in transfection-based assays” value was “most potent and efficacious activator; also recorded: activated”; the “Activation of SXR response elements (DR-3, DR-4, DR-5) by full-length SXR” value (shortened to “Activation of SXR response elements”) is listed as “among the best activators”.

For `C[C@]12CCC(=O)C=C1CC[C@@H]1[C@@H]2[C@@H](O)C[C@]2(C=O)[C@@H](C(=O)CO)CC[C@@H]12` [aldosterone], on SXR [1], the “Activation of SXR in transfection-based assays” value is “inactive” and the “Activation of SXR response elements” value is recorded as “little response”.

For the compound `CC/C(=C(/CC)c1ccc(O)cc1)c1ccc(O)cc1` [DES, diethylstilbestrol], the “Activation of human SXR” value at SXR [1] was “most potent activators”. On to `CC(=O)S[C@@H]1CC2=CC(=O)CC[C@]2(C)[C@H]2CC[C@@]3(C)[C@@H](CC[C@@]34CCC(=O)O4)[C@H]12` [spironolactone], for which, at SXR [2], the “Activation of human SXR” value was “activate”. In the case of `Clc1ccccc1C(c1ccccc1)(c1ccccc1)n1ccnc1` [CTZ, clotrimazole], in the data set with CYP3A11 gene (RIF 5 mg/kg, BRL 20 mg/kg, troglitazone and ciglitazone 150 mg/kg by gavage, CTZ 50 mg/kg, PCN 40 mg/kg i.p.), the “Induction of liver CYP3A11 expression in Alb-SXR transgenic mice” value is “higher level”. The “Induction of liver CYP3A11 expression in wild type / nontransgenic mice” value in the data set on CYP3A11 gene (same doses as in transgenic mice) was “moderate level”. Besides, on SXR [3], the “Activation of CYP3A23 promoter reporter with mutated DR-3 element (DR3/M1, DR3/M2)” value was “abolished” and the “Inducibility of CYP3A23 promoter reporter with DR-3 replaced by IR-6 element (DR3/IR6)” value is “rescueS the inducibility”. Turning to `CC(=O)[C@H]1CC[C@H]2[C@@H]3CCC4=CC(=O)CC[C@]4(C)[C@H]3CC[C@]12C` [progesterone], the “Activation of CYP3A23 promoter reporter in the absence of SXR” value (“Activation … in the absence of SXR” below) at endogenous PXR is given as “fail to activate or behave as poor activators”.

As for `O=c1oc2cc(O)ccc2c2oc3cc(O)ccc3c12` [coumestrol], the “Activation of human SXR” value at SXR [1] is “most potent activators”. `CCC1(c2ccccc2)C(=O)NC(=O)NC1=O` [phenobarbital]: the “Induction of CYP3A23 promoter reporter with co-transfection of SXR” value on SXR [3] was “significant induction”. At endogenous PXR, the “Activation … in the absence of SXR” value was “fail to activate or behave as poor activators”. In the case of `C[C@]12CCC(=O)C=C1CC[C@@H]1[C@@H]2[C@@H](O)C[C@@]2(C)[C@H]1CC[C@]2(O)C(=O)CO` [cortisol], the “Activation of SXR response elements” value on SXR [1] was “little response”.

Regarding estrogen, the “Activation of SXR in transfection-based assays” value at SXR [1] is “activated”.

`CC(=O)[C@H]1CC[C@H]2[C@@H]3CC=C4C[C@@H](O)CC[C@]4(C)[C@H]3CC[C@]12C` [pregnenolone]: the “Activation of SXR response elements” value on SXR [1] is “among the best activators”. The “Induction of CYP3A23 promoter reporter with co-transfection of SXR” value on SXR [3] is reported as “significant induction”. Moreover, the “Activation … in the absence of SXR” value on endogenous PXR is given as “fail to activate or behave as poor activators”. Consider `C[C@]12CCC(=O)C=C1CC[C@@H]1[C@@H]2C(=O)C[C@@]2(C)[C@H]1CC[C@]2(O)C(=O)CO` [cortisone], for which the “Activation of SXR response elements” value on SXR [1] is listed as “intermediate activators; also recorded: intermediate group”. As for `C[C@]12CCC(O)C[C@H]1CC[C@@H]1[C@@H]2[C@@H](O)C[C@]2(C)[C@@H](C(=O)CO)CC[C@@H]12` (stereo partly drawn) [5β, 5β-tetrahydrocorticosterone], the “Activation of hGRα on MTV-luc by corticosterone derivatives” value (“Activation of hGRα on MTV-luc” below) on hGRα is “completely inactive”. Besides, the “Activation of GAL-SXR on tk(MH100)4-luc by corticosterone derivatives” value at SXR [2] is recorded as “effective SXR activators”. `Oc1ccc([C@H]2COc3cc(O)ccc3C2)cc1` [equol]: the “Activation of human SXR” value at SXR [1] is reported as “activate”.

`CCCCC/C=C/C=C1/C(=O)C=C[C@@H]1C/C=C\CCCC(=O)O` [15d-PGJ2]: on SXR [3], the “Activation of CYP3A23 promoter reporter by PPARγ ligands in the presence of SXR” value is reported as “fail to activate”. `C[C@]12C[C@H](O)[C@H]3[C@@H](C[C@@H](O)C4=CC(=O)CC[C@@]43C)[C@@H]1CC[C@@H]2C(=O)CO` [6β-hydroxy corticosterone]: at hGRα, the “Activation of hGRα on MTV-luc” value was “slightly active”. For `O=c1c(-c2ccc(O)cc2)coc2cc(O)cc(O)c12` [genistein], the “Activation of human SXR” value on SXR [1] is on record as “activate”.

In the case of `Cc1ccc2cc3c(ccc4ccccc43)c3c2c1CC3` [3MC, 3-methylcholanthrene], the “Activation … in the absence of SXR” value on endogenous PXR is given as “fail to activate or behave as poor activators”. As to `C[C@]12CC[C@@H](O)C[C@@H]1CC[C@@H]1[C@@H]2[C@@H](O)C[C@]2(C)[C@@H](C(=O)CO)CC[C@@H]12` [5α, 5α-tetrahydrocorticosterone], the “Activation of hGRα on MTV-luc” value at hGRα was “slightly active”. In addition, the “Activation of GAL-SXR on tk(MH100)4-luc by corticosterone derivatives” value at SXR [2] is listed as “effective SXR activators”. Take `C[C@]12CCC(=O)C[C@@H]1CC[C@@H]1[C@@H]2CC[C@]2(C)[C@@H](O)CC[C@@H]12` [dihydrotestosterone]: at SXR [2], the “Activation of SXR in transfection-based assays” value is on record as “remarkably effective activators”; the “Activation of SXR response elements” value was “among the best activators”; the “Activation of human SXR” value was “activate”.
